ChEMBL document CHEMBL1649239, “Cotransfer of antibiotic resistance genes and a hylEfm-containing virulence plasmid in Enterococcus faecium” (2009)
Values after ≈ are worked out from the molar mass of the structure shown.

Assays:
Type in all cases: functional
Enterococcus faecium [1] = experiment: Antimicrobial activity against erythromycin-, streptomycin-resistant Enterococcus faecium A expressing hylEfm gene by agar dilution method
Enterococcus faecium [2] = experiment: Antimicrobial activity against fusidic acid-, rifampin-resistant Enterococcus faecium TX1330RF by agar dilution method
Enterococcus faecium [3] = experiment: Antimicrobial activity against erythromycin-, streptomycin-resistant Enterococcus faecium TX1330RF-A1 conjugant expressing hylEfm gene by agar dilution method
Enterococcus faecium [4] = experiment: Antimicrobial activity against vancomycin-, gentamicin-resistant Enterococcus faecium B expressing hylEfm gene by agar dilution method
Enterococcus faecium [5] = experiment: Antimicrobial activity against erythromycin-, streptomycin-, vancomycin-, gentamicin-resistant Enterococcus faecium TX1330RF-B1 conjugant expressing hylEfm gene by agar dilution method
Enterococcus faecium [6] = experiment: Antimicrobial activity against vancomycin-, gentamicin-resistant Enterococcus faecium TX1330RF-B2 conjugant expressing hylEfm gene by agar dilution method
Enterococcus faecium [7] = experiment: Antimicrobial activity against vancomycin-resistant Enterococcus faecium C expressing hylEfm gene by agar dilution method
Enterococcus faecium [8] = experiment: Antimicrobial activity against pbp5 gene-deficient fusidic acid-, rifampin-resistant Enterococcus faecium D344SRF expressing hylEfm gene by agar dilution method
Enterococcus faecium [9] = experiment: Antimicrobial activity against pbp5 gene-deficient vancomycin-, fusidic acid-, rifampin-resistant Enterococcus faecium D344SRF-C6 expressing hylEfm gene by agar dilution method

SMILES	MIC (Enterococcus faecium [1]) [µg/mL]	MIC (Enterococcus faecium [2]) [µg/mL]	MIC (Enterococcus faecium [3]) [µg/mL]	MIC (Enterococcus faecium [4]) [µg/mL]	MIC (Enterococcus faecium [5]) [µg/mL]	MIC (Enterococcus faecium [6]) [µg/mL]	MIC (Enterococcus faecium [7]) [µg/mL]	MIC (Enterococcus faecium [8]) [µg/mL]	MIC (Enterococcus faecium [9]) [µg/mL]
CC1(C)S[C@@H]2[C@H](NC(=O)[C@H](N)c3ccccc3)C(=O)N2[C@H]1C(=O)O [AMPICILLIN]	4 (≈ 11.4 µM)	1 (≈ 2.86 µM)	1 (≈ 2.86 µM)	256 (≈ 733 µM)	1 (≈ 2.86 µM)	1 (≈ 2.86 µM)	128 (≈ 366 µM)	< 0.25	< 0.25
CC[C@H]1OC(=O)[C@H](C)[C@@H](O[C@H]2C[C@@](C)(OC)[C@@H](O)[C@H](C)O2)[C@H](C)[C@@H](O[C@@H]2O[C@H](C)C[C@H](N(C)C)[C@H]2O)[C@](C)(O)C[C@@H](C)C(=O)[C@H](C)[C@@H](O)[C@]1(C)O [ERYTHROMYCIN]	> 512	0.5 (≈ 0.681 µM)	> 512	> 512	> 512	0.25 (≈ 0.341 µM)	> 512	512 (≈ 698 µM)	> 512
CN[C@H](CC(C)C)C(=O)N[C@H]1C(=O)N[C@@H](CC(N)=O)C(=O)N[C@H]2C(=O)N[C@H]3C(=O)N[C@H](C(=O)N[C@H](C(=O)O)c4cc(O)cc(O)c4-c4cc3ccc4O)[C@H](O)c3ccc(c(Cl)c3)Oc3cc2cc(c3O[C@@H]2O[C@H](CO)[C@@H](O)[C@H](O)[C@H]2O[C@H]2C[C@](C)(N)[C@H](O)[C@H](C)O2)Oc2ccc(cc2Cl)[C@H]1O [VANCOMYCIN]				512 (≈ 353 µM)		256 (≈ 177 µM)	256 (≈ 177 µM)		
